The values below come from patent US7872005B2, “2-substituted heteroaryl compounds” (Synta Pharmaceuticals Corporation, priority 2004, dated 2011).

The subject of test [1] is adjuvant arthritis (AA) in female Lewis rats. Put plainly: Treatment of adjuvant arthritis in rats. The class given is in vivo, rat. The following applies: oral, once a day for 12 days; dose-dependent. The method, then:
A heterocyclic compound can also be evaluated by animal studies. For example, one of such studies involves the ability of a test compound to treat adjuvant arthritis (i.e., a IL-12 overproduction related disorder) in rats.
Treatment of adjuvant arthritis in rats: Adjuvant arthritis (AA) was induced in female Lewis rats by the intracutaneous injection (base of the tail) of 0.1 mL of a 10 mg/mL bacterial suspension made from ground, heat-killed Mycobacterium tuberculosis H37Ra suspended in incomplete Freund's adjuvant. Rats were given a test compound orally once a day for 12 days, starting the day following the induction. The development of polyarthritis was monitored daily by macroscopic inspection and assignment of an arthritis index to each animal, during the critical period (days 10 to 25 post-immunization).
The intensity of polyarthritis was scored according to the following scheme: (a) Grade each paw from 0 to 3 based on erythema, swelling, and deformity of the joints: 0 for no erythema or swelling; 0.5 if swelling is detectable in at least one joint; 1 for mild swelling and erythema; 2 for swelling and erythema of both tarsus and carpus; and 3 for ankylosis and bony deformity. Maximum score for all 4 paws was thus 12. […]

The subject of test [2] is colitis in C.B-17 SCID mice. The experiment in a line: CD4+ CD45Rb high T cell-reconstituted SCID colitis model mice. The class given is in vivo, mouse. The method, then:
Treatment of Crohn's disease in CD4^+ CD45Rb^high T cell-reconstituted SCID colitis model mice: Spleen cells were prepared from normal female BALB/c mice. For cell purification, the following anti-mouse antibodies were used to label non-CD4^+ T cells: B220 (RA3-6B2), CD11b (M1/70), and CD8α (53-6.72). All antibodies were obtained from BioSource (Camarillo, Calif.). M450 anti-rat IgG-coated magnetic beads (Dynal, Oslo, Norway) were used to bind the antibodies and negative selection was accomplished using an MPC-1 magnetic concentrator. The enriched CD4^+ cells were then labeled for cell sorting with FITC-conjugated CD45RB (16A, Pharmingen, San Diego, Calif.) and PE-conjugated CD4 (CT-CD4, Caltag, Burlingame, Calif.). CD4^+ CD45RB^high cells were operationally defined as the upper 40% of CD45Rb-staining CD4^+ cells and sorted under sterile conditions by flow cytometry. Harvested cells were resuspended at 4×10^6/mL in PBS and injected 100 μL intraperitoneally into female C.B-17 SCID mice. Pyrimidine compounds of this invention (e.g., Compound 12) and/or vehicle was orally administered once a day, 5 days per week, starting the day following the transfer. The transplanted SCID mice were weighed weekly and their clinical condition was monitored.
Colon tissue samples were fixed in 10% buffered formalin and embedded in paraffin. Sections (4 μm) collected from ascending, transverse, and descending colon were cut and stained with hematoxylin and eosin. The severity of colitis was determined based on histological examination of the distal colon sections, whereby the extent of colonic inflammation was graded on a scale of 0-3 in each of four criteria: crypt elongation, cell infiltration, depletion of goblet cells, and the number of crypt abscesses.
LP lymphocytes were isolated from freshly obtained colonic specimens. After removal of payer's patches, the colon was washed in Ca/Mg-free HBSS, cut into 0.5 cm pieces and incubated twice in HBSS containing EDTA (0.75 mM), DTT (1 mM), and antibiotics (amphotericin 2.5 μg/mL, gentamicin 50 μg/mL from Sigma) at 37° C. for 15 min. Next, the tissue was digested further in RPMI containing 0.5 mg/mL collagenase D, 0.01 mg/mL DNase I (Boehringer Manheim), and antibiotics at 37° C. LP cells were then layered on a 40-100% Percoll gradient (Pharmacia, Uppsala, Sweden), and lymphocyte-enriched populations were isolated from the cells at the 40-100% interface.
To measure cytokine production, 48-well plates were coated with 10 μg/mL murine anti-CD3ε antibody (145-2C11) in carbonate buffer (PH 9.6) overnight at 4° C. […] Murine IFNγ was measured using an ELISA kit from Endogen (Cambridge, Mass.), according to the manufacturer's instructions.

Test [3] concerns DNBS-induced distal colitis in Wistar derived rats. The experiment in a line: Dinitrobenzene sulfonic acid-induced inflammatory bowel syndrome model rats (distal colitis). The format is in vivo, rat. As to conditions: oral, 24 and 2 hours before DNBS, then daily for 5 days; relative to net increase of vehicle+DNBS group. The method, then:
Treatment of Crohn's disease in dinitrobenzene sulfonic acid-induced inflammatory bowel syndrome model rats: Wistar derived male or female rats weighing 200±20 g and fasted for 24 hours were used. Distal colitis was induced by intra-colonic instillation of 2,4-dinitrobenzene sulfonic acid (DNBS, 25 mg in 0.5 mL ethanol 30%) after which air (2 mL) was gently injected through the cannula to ensure that the solution remained in the colon. A test compound and/or vehicle was administered orally 24 and 2 hours before DNBS instillation and then daily for 5 days. One control group was similarly treated with vehicle alone while the other is treated with vehicle plus DNBS. The animals were sacrificed 24 hours after the final dose of test compound administration and each colon was removed and weighed. Colon-to-body weight ratio was then calculated for each animal according to the formula: Colon (g)/BW×100. The “Net” increase in ratio of Vehicle-control+DNBS group relative to Vehicle-control group was used as a base for comparison with test substance treated groups and expressed as “% Deduction.” Pyrimidine compounds of this invention (e.g., Compound 12) reproducibly had about 30% deduction. A 30% or more reduction in colon-to-body weight ratio, relative to the vehicle treated control group, was considered significant.

Take `Cc1cccc(/C=N/Nc2cc(N3CCOCC3)nc(CCOC(=O)Nc3cccc(C(F)(F)F)c3)n2)c1` [Compound 12, (3-Trifluoromethyl-phenyl)-carbamic acid 2-{4-[N′-(3-methyl-benzylidene)-hydrazino]-6-morpholin-4-yl-pyrimidin-2-yl}-ethyl ester]: in test [1], the arthritic score result is reported as “reduced the arthritic score” and the development of polyarthritis entry is “delayed the development of polyarthritis”. Besides, in test [2] (LP cells from treated mice, ex vivo, 48 h culture), the “IFNγ production by LP cells in response to anti-CD3 and anti-CD28 antibody” value is “greatly diminished the production”. Moreover, the “colonic inflammation (histological analysis)” value in test [2] (oral, once a day, 5 days per week, compared to vehicle control) is recorded as “reduced colonic inflammation”. In addition, in test [2] (oral, consistent with histological score), the colon-to-body weight ratio entry is given as “attenuation”. In addition, in test [2] (oral, dose of 10 mg/kg), the “suppressive effect on colonic inflammation at 10 mg/kg” value is reported as “substantial reduction”. Besides, the “% Deduction (colon-to-body weight ratio)” value in test [3] is reported as “about 30%”.
